The values that follow come from PMC9536471 (Biochemistry, 2022).

Where “and” joins values, the source holds several entries; their conditions need not be identical. Equal entries are not always repeated. Where two headings read alike, the source gives them in different places.

Data set [1] concerns the target T1, TcC (Trypanosoma cruzi, UniProt Q4DGA3).
T1 sequence (Q4DGA3 1-221): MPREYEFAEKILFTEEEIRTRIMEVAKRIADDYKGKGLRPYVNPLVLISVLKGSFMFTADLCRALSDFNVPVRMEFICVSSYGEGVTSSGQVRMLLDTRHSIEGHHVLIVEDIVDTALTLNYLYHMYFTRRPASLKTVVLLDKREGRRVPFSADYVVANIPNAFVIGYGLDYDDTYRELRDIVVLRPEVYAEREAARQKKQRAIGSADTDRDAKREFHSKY
As to the kind of experiment: Isothermal titration calorimetry. Type of data set: binding. On the technique in general: In ITC the heat of successive injections is recorded.

A further data set concerns the target T2, TcA (Trypanosoma cruzi, UniProt Q4DRC4).
T2 sequence (Q4DRC4 1-241): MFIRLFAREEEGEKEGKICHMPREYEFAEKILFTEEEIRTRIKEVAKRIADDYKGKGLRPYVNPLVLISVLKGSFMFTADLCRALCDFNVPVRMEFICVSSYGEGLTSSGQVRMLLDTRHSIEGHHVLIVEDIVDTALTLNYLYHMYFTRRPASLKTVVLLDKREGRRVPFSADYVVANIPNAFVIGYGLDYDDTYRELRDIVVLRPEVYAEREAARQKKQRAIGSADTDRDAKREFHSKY
To be noted: cited from earlier work.

In a further data set the target is T3, HsHGPRT (Homo sapiens, UniProt P00492).
T3 sequence (P00492 1-218): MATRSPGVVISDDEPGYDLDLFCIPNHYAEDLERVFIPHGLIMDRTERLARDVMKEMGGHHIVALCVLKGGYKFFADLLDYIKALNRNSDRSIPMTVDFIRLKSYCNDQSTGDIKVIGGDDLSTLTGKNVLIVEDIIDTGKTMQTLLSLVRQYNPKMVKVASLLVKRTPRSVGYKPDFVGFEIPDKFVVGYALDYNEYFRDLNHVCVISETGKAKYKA
As to the kind of experiment: Inhibition analysis of HsHGPRT, IMPDH-coupled assay. The class given is biochemical.

The target in the next data set is T4, PfHGXPRT (Plasmodium falciparum, UniProt P20035).
T4 sequence (P20035 1-231): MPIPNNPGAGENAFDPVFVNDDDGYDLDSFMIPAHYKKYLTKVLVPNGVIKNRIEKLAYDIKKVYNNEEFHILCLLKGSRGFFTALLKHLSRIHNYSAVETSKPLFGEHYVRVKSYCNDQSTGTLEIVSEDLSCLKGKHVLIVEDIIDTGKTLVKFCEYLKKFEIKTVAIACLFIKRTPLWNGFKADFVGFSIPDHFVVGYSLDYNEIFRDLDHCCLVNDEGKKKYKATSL
As to the kind of experiment: Inhibition analysis of PfHGXPRT, IMPDH-coupled assay. Type of data set: biochemical.

For data set [2], the system named is T. cruzi HGPRT. The data set can be described thus: Screening of T. cruzi HGPRT inhibitors. Type of data set: biochemical, Trypanosoma cruzi. To be noted: selectivity index: Ki of HsHGPRT divided by appKi of T. cruzi HGPRT.
In data set [3] the target is T5, T. cruzi HGPRT (Trypanosoma cruzi, UniProt Q4DGA3).
T5 sequence (Q4DGA3 1-221): T1 sequence (Q4DGA3 1-221)
As to the kind of experiment: Screening of T. cruzi HGPRT inhibitors. Type of data set: biochemical.

In data set [4] the target is T1, TcC. The data set can be described thus: Product inhibition studies of TcC. The class given is biochemical.
Substrate in data set [5]: O=c1[nH]cnc2nc[nH]c12
The data set can be described thus: purified protein, by the assay type. The conditions noted are these: other: biosynthetic reaction, pH 8.3.

Substrate in data set [6]: Nc1nc2nc[nH]c2c(=O)[nH]1
As to the kind of experiment: Steady-state kinetics of TcA, biosynthetic. Type of data set: biochemical, Trypanosoma cruzi. To be noted: other: biosynthetic reaction, pH 8.3.

Substrate in data set [7]: Oc1ncnc2[nH]ncc12
As to the kind of experiment: Steady-state kinetics of TcC, biosynthetic. The class given is biochemical, Trypanosoma cruzi. To be noted: other: biosynthetic reaction, pH 8.3.

Substrate in data set [8]: Nc1nc2nc[nH]c2c(=O)[nH]1
The data set can be described thus: Steady-state kinetics of TcC, biosynthetic. The class given is biochemical, Trypanosoma cruzi. To be noted: other: biosynthetic reaction, pH 8.3.

Setting [9] is: HPP-MP biosynthesis, fixed PRPP (1 mM), Lineweaver–Burk plots.
Setting [10] is: GMP biosynthesis, variable PRPP (20–215 μM), fixed Gua (70 μM).
Where [11] appears, read: IMP biosynthesis, variable PRPP (20–215 μM), fixed Hx (60 μM).

Take `O=c1[nH]cnc2nc[nH]c12` [Hx, hypoxanthine]: the “binding to free TcC enzyme” value on TcC [1] (ligand concentrations 500- and 900-fold higher than Km) is reported as “could not be detected”.
Broadly, the Km is the substrate concentration at which the rate is half of its maximum. Take `Oc1ncnc2[nH]ncc12` [HPP, 4-hydroxypyrazolo(3,4-d)pyrimidine, reference compound]: at TcA (setting [9]), the Km is 710 ± 130 µM and the kcat was 0.34 ± 0.03 ^c^, ^d s^–1.
As a reminder, the Ki is the dissociation constant of the complex between target and ligand, obtained from inhibition or displacement. For `CN(Cc1c[nH]c2c(=O)[nH]cnc12)[C@H](CO)CCP(=O)(O)O.N.N` [Compound 4], the Ki on HsHGPRT worked out at 4600 ± 70 nM; on PfHGXPRT, 108 ± 30 nM; on T. cruzi HGPRT [3] it was 1440 ± 30 nM. This molecule also had an SI in the data set with T. cruzi HGPRT [2] of 3.2.
In general, Kd refers to the equilibrium constant for the complex coming apart. Lower therefore signals a tighter complex. On to `O=P(O)(O)OC[C@H]1O[C@H](OP(=O)(O)OP(=O)(O)O)[C@H](O)[C@@H]1O` [PRPP, 5-phospho-α-D-ribose 1-diphosphate], for which the Ki on TcC [4] was 800 ± 100 nM. The molecule also had a Kd at TcC [1] of 142000 ± 1000 nM. At TcC [1] (apo TcC, 25 °C, pH 8.0), the “ΔG°” value was “–5247 ± 5 cal mol^–1”, the “ΔH°” value came out at 5160 ± 450 cal mol^–1 and the “–TΔS°” value is reported as “–10,410 ± 450 cal mol^–1”. For the same molecule, on TcC [1] (association constant, apo TcC, 25 °C, pH 8.0), the Ka was 7070 ± 60 M^–1. In addition, the N at TcC [1] (number of binding sites per monomer, apo TcC, 25 °C, pH 8.0) is listed as 1.2 ± 0.2. Moreover, on TcA (setting [10]), the Km was 32 ± 5 µM and the kcat is on record as 32 ^b s^–1. Besides, at TcA (setting [11]), the Km was 31 ± 5 µM and the kcat is on record as 23 ^b s^–1.

B1: TcA (Trypanosoma cruzi strain CL Brener) (protein)
chain: T2 sequence (Q4DRC4 1-241)
As for B1, the kcat/Km was 1 × 10^5 M^–1 s^–1 in data set [5] (TcA); 1 × 10^5 M^–1 s^–1 and 2.5 × 10^6 M^–1 s^–1 in [6].

B2: TcC (Trypanosoma cruzi strain CL Brener) (protein)
chain: T1 sequence (Q4DGA3 1-221)
For B2, the kcat/Km in data set [5] (TcC) is 1 × 10^5 M^–1 s^–1 and 2.1 × 10^6 M^–1 s^–1; in data set [7], 10^3 M^–1 s^–1; in data set [8], 1 × 10^5 M^–1 s^–1 and 2.5 × 10^6 M^–1 s^–1.
